Laboratory results as given in publication PMC6407578, “Synthesis and biological evaluation of ursolic acid derivatives bearing triazole moieties as potential anti-Toxoplasma gondii agents” (Journal of Enzyme Inhibition and Medicinal Chemistry, 2019).
Where two headings read alike, the source gives them in different places.

Experiments:
[1] = Liver/spleen indexes, serum ALT/AST, liver MDA/GSH in T. gondii-infected KM mice; assay type: in vivo; details: 100 mg/kg; for spleen index: effect on the infection-induced increase, not statistically significant; for GSH content (liver homogenate): compared to the untreated group
Protocol: (§1) Thirty female KM mice were used to establish an animal model of acute T. gondii infection. These were randomly divided into five groups: infected untreated, normal, infected with spiramycin treatment, infected with 1e treatment and infected with 3d treatment. Each group consisted of six mice. Four hours after infection, 100 mg/kg of the compounds was administered to the mice by gavage, once a day for 4 consecutive days, whereas the untreated group was administered the same dose of physiological saline. On the fifth day, blood from the eyes of mice was collected and they were sacrificed by cervical dislocation. Their abdominal cavity was rinsed with sterile physiological saline to collect the parasites/tachyzoites. These were counted under the light microscope, and the inhibition rate of parasites was calculated. The liver and spleen were dissected and liver and spleen indexes, serum alanine aminotransferase (ALT), aspartate aminotransferase (AST), and liver homogenate glutathione (GSH) and malonaldehyde (MDA) were determined.

HeLa cells = assay: Cytotoxicity on HeLa host cells (MTT); assay type: cell-based; details: median toxicity dose, cytotoxicity against host cells, 24 h
Protocol: (§2) The cytotoxicity of compounds was determined using the previously published thiazolyl blue-based colorimetric method. For this, HeLa cells were used as host cells and their ability to resist invasion by T. gondii RH strain tachyzoites in vitro was checked. The cells were plated in 96-well plates at an appropriate density to ensure exponential growth throughout the experimental period (3 × 10^3 cells per well) and then allowed to adhere for 24 h at 37 °C. The cells were infected with T. gondii (1.5 × 10^4 tachyzoites/well), followed by incubation for 24 h. All compounds were prepared in dimethyl sulfoxide (DMSO) at a stock concentration of 100 mM. Serial dilutions (1–1000 μM) of each compound were tested. Spiramycin was used as a positive control. After 24 h of incubation, 10 μL of MTT solution were added to each well and cells were incubated for a further 2 h. The optical density (OD) was read on a microplate reader at a wavelength of 492 nm. The IC50 in HeLa cells, IC50 in T. gondii and selectivity index were calculated using Microsoft Excel.

T. gondii tachyzoites = assay: In vivo anti-T. gondii activity, acute infection model in KM mice (intraperitoneal tachyzoite count); design: species or system Toxoplasma gondii; details: T. gondii-infected KM mice, 100 mg/kg by gavage once a day for 4 days; for inhibitory rate of tachyzoites: ascitic fluid; for Amount of tachyzoite: intraperitoneal tachyzoites
Protocol: as §1

[2] = test system: T. gondii RH strain tachyzoites; assay: In vitro T. gondii growth inhibition in HeLa host cells (MTT); assay type: cell-based, Toxoplasma gondii; details: for SI (selectivity index): IC50 in HeLa cells/IC50 in T. gondii; for IC50: median inhibitory concentration, tachyzoite inhibition, HeLa host cells, 24 h
Protocol: as §2

T. gondii = test system: T. gondii; design: method as in PMID 25288090; details: cited from earlier work
[3] = T. gondii-infected KM mice, compared with the untreated group

Molecule	inhibitory rate of tachyzoites (T. gondii tachyzoites) [%]	Amount of tachyzoite (T. gondii tachyzoites)	SI (selectivity index) [2]	IC50 (HeLa cells; Homo sapiens, HeLa) [µM]	IC50 ([2]; Toxoplasma gondii) [µM]	melting point [°C]	also measured
Spiramycin [reference compound]	56.8	97.2 ×10^4	0.72	–	–	–	levels of MDA (liver homogenate) [1, 3]: significantly decreased; spleen index ([1]; T. gondii-infected KM mice): subjugated; IC50 (HeLa cells): 189 µM; IC50 [2]: 262 µM
C[C@H]1[C@H](C)CC[C@]2(C(=O)O)CC[C@]3(C)C(=CC[C@@H]4[C@@]5(C)C/C(=C\c6cn(-c7ccccc7Cl)nn6)C(=O)C(C)(C)[C@@H]5CC[C@]43C)[C@H]12 [1e, (1S,2R,4aS,6aS,6bR,8aR,12aR,12bR,14bS,E)-11-((1–(2-chlorophenyl)-1H-1,2,3-triazol-4-yl)methylene)-1,2,6a,6b,9,9,12a-heptamethyl-10-oxo-1,3,4,5,6,6a,6b,7,8,8a,9,10,11,12,12a,12b,13,14b-octadecahydropicene-4a(2H)-carboxylic acid]	37.0	141.8 ×10^4	1.95	466	240	–	GSH content (liver homogenate) ([1]; T. gondii-infected KM mice): significantly increase; serum ALT and AST levels [1, 3]: striking reduction
C[C@H]1[C@H](C)CC[C@]2(C(=O)O)CC[C@]3(C)C(=CC[C@@H]4[C@@]5(C)C/C(=C\c6cn(-c7ccccc7)nn6)C(=O)C(C)(C)[C@@H]5CC[C@]43C)[C@H]12 [1a, (1S,2R,4aS,6aS,6bR,8aR,12aR,12bR,14bS,E)-1,2,6a,6b,9,9,12a-heptamethyl-10-oxo-11-((1-phenyl-1H-1,2,3-triazol-4-yl)methylene)-1,3,4,5,6,6a,6b,7,8,8a,9,10,11,12,12a,12b,13,14b-octadecahydropicene-4a(2H)-carboxylic acid]	–	–	–	> 1000	> 1000	> 250	–
C[C@H]1[C@H](C)CC[C@]2(C(=O)OCC(=O)NCc3cn(-c4ccc(Cl)cc4)nn3)CC[C@]3(C)C(=CC[C@@H]4[C@@]5(C)CCC(O)C(C)(C)[C@@H]5CC[C@]43C)[C@H]12 (stereo partly drawn) [2b, (1S,2R,4aS,6aS,6bR,8aR,12aR,12bR,14bS)-2-((1–(4-chlorophenyl)-1H-1,2,3-triazol-4-yl)methylamino)-2-oxoethyl-10-hydroxy-1,2,6a,6b,9,9,12a-heptamethyl-1,2,3,4,4a,5,6,6a,6b,7,8,8a,9,10,11,12,12a,12b,13,14b-icosahydropicene-4a-carboxylate]	–	–	–	329	> 1000	176 to 178	–
C[C@H]1[C@H](C)CC[C@]2(C(=O)OCCn3cnnc3-c3ccc([N+](=O)[O-])cc3)CC[C@]3(C)C(=CC[C@@H]4[C@@]5(C)CCC(O)C(C)(C)[C@@H]5CC[C@]43C)[C@H]12 (stereo partly drawn) [3d, 2 –(3-(4-nitrophenyl)-4H-1,2,4-triazol-4-yl)ethyl(1S,2R,4aS,6aS,6bR,8aR,12aR,12bR,14bS)-10-hydroxy-1,2,6a,6b,9,9,12a-heptamethyl-1,3,4,5,6,6a,6b,7,8,8a,9,10,11,12,12a,12b,13,14b-octadecahydropicene-4a(2H)-carboxylate]	70.4	66.6 ×10^4	1.77	227	128	–	GSH content (liver homogenate) ([1]; T. gondii-infected KM mice): significantly increase; levels of MDA (liver homogenate) [1, 3]: significantly decreased; serum ALT and AST levels [1, 3]: striking reduction; spleen index ([1]; T. gondii-infected KM mice): subjugated
C[C@H]1[C@H](C)CC[C@]2(C(=O)OCC(=O)NCc3cn(-c4ccc(Cl)c(Cl)c4)nn3)CC[C@]3(C)C(=CC[C@@H]4[C@@]5(C)CCC(O)C(C)(C)[C@@H]5CC[C@]43C)[C@H]12 (stereo partly drawn) [2e, (1S,2R,4aS,6aS,6bR,8aR,12aR,12bR,14bS)-2-((1–(3,4-dichlorophenyl)-1H-1,2,3-triazol-4-yl)methylamino)-2-oxoethyl-10-hydroxy-1,2,6a,6b,9,9,12a-heptamethyl-1,2,3,4,4a,5,6,6a,6b,7,8,8a,9,10,11,12,12a,12b,13,14b-icosahydropicene-4a-carboxylate]	–	–	–	> 1000	> 1000	203 to 204	–
COc1ccc(-c2nncn2CCOC(=O)[C@]23CC[C@@H](C)[C@H](C)[C@H]2C2=CC[C@@H]4[C@@]5(C)CCC(O)C(C)(C)[C@@H]5CC[C@@]4(C)[C@]2(C)CC3)cc1 (stereo partly drawn) [3e, 2 –(3-(4-methoxyphenyl)-4H-1,2,4-triazol-4-yl)ethyl(1S,2R,4aS,6aS,6bR,8aR,12aR,12bR,14bS)-10-hydroxy-1,2,6a,6b,9,9,12a-heptamethyl-1,3,4,5,6,6a,6b,7,8,8a,9,10,11,12,12a,12b,13,14b-octadecahydropicene-4a(2H)-carboxylate]	–	–	0.67	78.2	116	233 to 235	–
S=C1N=NC(c2cccs2)=N1 [compound 2, 3-(thiophen-2-yl)-1,2,4-triazole-5-thione]	–	–	–	–	–	–	selectivity value (T. gondii; 3[H]uracil incorporation method): 4.58; selectivity value (T. gondii; qRT-PCR): 5.21
C[C@H]1[C@H](C)CC[C@]2(C(=O)O)CC[C@]3(C)C(=CC[C@@H]4[C@@]5(C)CC[C@H](O)C(C)(C)[C@@H]5CC[C@]43C)[C@H]12 [Ursolic Acid, Ursolic acid]	65.4	77.9 ×10^4	0.62	44.8	72.2	–	levels of MDA (liver homogenate) [1, 3]: significantly decreased; spleen index ([1]; T. gondii-infected KM mice): subjugated; serum ALT and AST levels ([1]; mouse, in vivo): striking reduction
COc1ccc(-n2cc(CNC(=O)COC(=O)[C@]34CC[C@@H](C)[C@H](C)[C@H]3C3=CC[C@@H]5[C@@]6(C)CCC(O)C(C)(C)[C@@H]6CC[C@@]5(C)[C@]3(C)CC4)nn2)cc1 (stereo partly drawn) [2c, (1S,2R,4aS,6aS,6bR,8aR,12aR,12bR,14bS)-2-((1–(4-methoxyphenyl)-1H-1,2,3-triazol-4-yl)methylamino)-2-oxoethyl-10-hydroxy-1,2,6a,6b,9,9,12a-heptamethyl-1,2,3,4,4a,5,6,6a,6b,7,8,8a,9,10,11,12,12a,12b,13,14b-icosahydropicene-4a-carboxylate]	–	–	–	> 1000	> 1000	180 to 181	–
C[C@H]1[C@H](C)CC[C@]2(C(=O)OCCn3cnnc3-c3ccc(Cl)cc3)CC[C@]3(C)C(=CC[C@@H]4[C@@]5(C)CCC(O)C(C)(C)[C@@H]5CC[C@]43C)[C@H]12 (stereo partly drawn) [3b, 2 –(3-(4-chlorophenyl)-4H-1,2,4-triazol-4-yl)ethyl(1S,2R,4aS,6aS,6bR,8aR,12aR,12bR,14bS)-10-hydroxy-1,2,6a,6b,9,9,12a-heptamethyl-1,3,4,5,6,6a,6b,7,8,8a,9,10,11,12,12a,12b,13,14b-octadecahydropicene-4a(2H)-carboxylate]	–	–	0.36	2.4	6.7	245 to 246	–
C[C@H]1[C@H](C)CC[C@]2(C(=O)O)CC[C@]3(C)C(=CC[C@@H]4[C@@]5(C)C/C(=C\c6cn(-c7cccc(F)c7)nn6)C(=O)C(C)(C)[C@@H]5CC[C@]43C)[C@H]12 [1c, (1S,2R,4aS,6aS,6bR,8aR,12aR,12bR,14bS,E)-11-((1–(3-fluorophenyl)-1H-1,2,3-triazol-4-yl)methylene)-1,2,6a,6b,9,9,12a-heptamethyl-10-oxo-1,3,4,5,6,6a,6b,7,8,8a,9,10,11,12,12a,12b,13,14b-octadecahydropicene-4a(2H)-carboxylic acid]	–	–	–	> 1000	> 1000	> 250	–
